Results as given in patent publication US12171230B2, “Herbicidal compositions” (Bayer Aktiengesellschaft, priority 2018, dated 2024).

Experiments:
Format in all cases: in vivo
Kochia scoparia [1] = assay: Post-emergence herbicidal action against Kochia scoparia; conditions: g of a.i./ha by row: 30, 5, 5 + 30
Source text: (§1) The following abbreviations are used in the description and the tables that follow: • g of a.i./ha=grams of active substance (active ingredient) (=100% active compound) per hectare; • The sum total of the effects of the individual applications is reported under E^A; • expected values according to Colby are each reported under E^C.
(§2) The rating period is reported in days after application (DAT).

Eleusine indica = assay: Post-emergence herbicidal action against Eleusine indica; conditions: 21 DAT; 1.7 g a.i./ha
Amaranthus palmeri = assay: Post-emergence herbicidal action against Amaranthus palmeri; conditions: 21 DAT; for Herbicidal action: 5 g a.i./ha
Protocol: (§3) When the observed efficacies exceed the formal sum total of the values of the tests with individual applications, they also exceed the expected value according to Colby, which is calculated using the formula below and is likewise regarded as an indication of synergism (cf. S. R. Colby; in Weeds 15 (1967) p. 20 to 22): E^C=A+B−([…])
(§4) Here: • A=efficacy of the active compound (A) in % at an application rate of a g a.i./ha; • B=efficacy of the active compound (B) in % at an application rate of b g a.i./ha; • E^C=expected value of the effect of the combination (A)+(B) in % at the combined application rate a+b g a.i./ha.
(§5) Seeds or rhizome pieces of mono- and dicotyledonous weeds are placed in sandy loam in pots, covered with soil and grown in a greenhouse under good growth conditions (temperature, air humidity, water supply). Three weeks after sowing, the test plants were treated at the three-leaf stage with the compositions according to the invention. The compositions according to the invention formulated as spray powders or as emulsion concentrates were sprayed onto the green plant parts in various dosages with an application rate of 300 to 800 l/ha of water (equivalent). After the test plants have been left to stand in the greenhouse under optimal growth conditions for about 3 to 4 weeks, the action of the preparations is scored visually in comparison to untreated controls. The compositions according to the invention also have good post-emergence herbicidal activity against a broad spectrum of economically important gramineous and broadleaf weeds.

Bidens pilosa = assay: Post-emergence herbicidal action against Bidens pilosa; conditions: 21 DAT
Protocol: as §3, §4, §5

Setaria viridis = assay: Post-emergence herbicidal action against Setaria viridis; conditions: 21 DAT
Protocol: as §3, §4, §5

Kochia scoparia [2] = assay: Post-emergence herbicidal action against Kochia scoparia; conditions: 21 DAT
Echinochloa crus-galli = assay: Post-emergence herbicidal action against Echinochloa crus-galli; conditions: 21 DAT
Protocol: as §3, §4, §5

Abutilon theophrasti [3] = assay: Post-emergence herbicidal action against Abutilon theophrasti; conditions: g of a.i./ha: 90, 30, 15, 15 + 90, 15 + 30
Source text: as §1, §2

Pharbitis purpurea = assay: Post-emergence herbicidal action against Pharbitis purpurea; conditions: 21 DAT; 15 g a.i./ha
Protocol: as §3, §4, §5

Abutilon theophrasti [4] = assay: Post-emergence herbicidal action against Abutilon theophrasti; conditions: 21 DAT
Sorghum halepense = assay: Post-emergence herbicidal action against Sorghum halepense; conditions: 21 DAT; 15 g of a.i./ha
Protocol: as §3, §4, §5

Brachiaria plantaginea = assay: Post-emergence herbicidal action against Brachiaria plantaginea; conditions: A3/Asulam; post-emergence; g of a.i./ha by row: 720, 100, 100 + 720
Source text: as §1, §2

Digitaria horizontalis = assay: Post-emergence herbicidal action against Digitaria horizontalis; conditions: A3/Asulam, post-emergence, g of a.i./ha by row: 720, 100, 100 + 720
Source text: as §1, §2

## C=CC1(C(=O)N[C@H]2CO[C@@H](C(=O)OC)C2)CC(c2cc(Cl)cc(Cl)c2)=NO1 (relative stereo) [Compound A2, methyl rel-(2R,4R)-4-[[3-(3,5-dichlorophenyl)-5-vinyl-4H-isoxazole-5-carbonyl]amino]tetrahydrofuran-2-carboxylate]
Kochia scoparia [1]
  Herbicidal action 21 DAT against Kochia scoparia: 40%
Eleusine indica
  Herbicidal action: 10%
Amaranthus palmeri
  Herbicidal action: 45%
Bidens pilosa; 5 g a.i./ha
  Herbicidal action: 45%
Bidens pilosa; 15 g a.i./ha
  Herbicidal action: 50%
Bidens pilosa; 45 g a.i./ha
  Herbicidal action: 70%
Setaria viridis; 1.7 g a.i./ha
  Herbicidal action: 10%
Kochia scoparia [2]; 5 g a.i./ha
  Herbicidal action: 40%
Echinochloa crus-galli; 15 g a.i./ha
  Herbicidal action: 80%
Abutilon theophrasti [3]
  Herbicidal action 21 DAT against Abutilon theophrasti: 75%

## CC(C)OC(=O)[C@H]1C[C@@H](NC(=O)C2(C)CC(c3cccc(F)c3)=NO2)CO1 (relative stereo) [Compound A4, isopropyl rel-(2R,4R)-4-[[3-(3-fluorophenyl)-5-methyl-4H-isoxazole-5-carbonyl]amino]tetrahydrofuran-2-carboxylate]
Pharbitis purpurea
  Herbicidal action: 60%
Eleusine indica
  Herbicidal action: 20%
Amaranthus palmeri; 15 g of a.i./ha
  Herbicidal action against Amaranthus palmeri (res.): 10%
Amaranthus palmeri; 45 g of a.i./ha
  Herbicidal action against Amaranthus palmeri (res.): 30%
Amaranthus palmeri; (res.)
  Herbicidal action: 10%
Abutilon theophrasti [4]; 5 g of a.i./ha
  Herbicidal action against Abutilon theophrasti: 10%
Abutilon theophrasti [4]; 15 g of a.i./ha
  Herbicidal action against Abutilon theophrasti: 10%
Abutilon theophrasti [4]; 45 g of a.i./ha
  Herbicidal action against Abutilon theophrasti: 20%
Sorghum halepense
  Herbicidal action against Sorghum halepense: 10%
Bidens pilosa; 5 g a.i./ha
  Herbicidal action: 10%
Bidens pilosa; 5 g of a.i./ha
  Herbicidal action against Bidens pilosa: 10%
Bidens pilosa; 15 g a.i./ha
  Herbicidal action: 10%
Bidens pilosa; 15 g of a.i./ha
  Herbicidal action against Bidens pilosa: 10%
Bidens pilosa; 45 g a.i./ha
  Herbicidal action: 30%
Setaria viridis; 1.5 g of a.i./ha
  Herbicidal action against Setaria viridis: 10%
Setaria viridis; 5 g a.i./ha
  Herbicidal action: 20%
Setaria viridis; 15 g a.i./ha
  Herbicidal action: 60%
Setaria viridis; 15 g of a.i./ha
  Herbicidal action against Setaria viridis: 60%
Kochia scoparia [2]; 5 g a.i./ha
  Herbicidal action: 10%
Kochia scoparia [2]; 15 g a.i./ha
  Herbicidal action: 10%
Echinochloa crus-galli; 5 g a.i./ha
  Herbicidal action: 10%
Echinochloa crus-galli; 15 g of a.i./ha
  Herbicidal action against Echinochloa crus-galli: 20%

## COC(=O)NS(=O)(=O)c1ccc(N)cc1 [(B2.4) Asulam]
Brachiaria plantaginea
  Herbicidal action 28 DAT against Brachiaria plantaginea: 0%
Digitaria horizontalis; first sub-table
  Herbicidal action 28 DAT against Digitaria horizontalis: 0%
Digitaria horizontalis; second sub-table
  Herbicidal action 28 DAT against Digitaria horizontalis: 0%
